Laboratory results from patent US20250171438A1 (Agios Pharmaceuticals, Inc., priority 2022, published 2025).
Read-outs that look alike come from different tables or passages of the source.

Molecular target: T1, human PAH with the R408W mutation (Homo sapiens, UniProt P00439, R408W)
T1 construct: expressed in transfected cells
T1 sequence (P00439 1-452 R408W): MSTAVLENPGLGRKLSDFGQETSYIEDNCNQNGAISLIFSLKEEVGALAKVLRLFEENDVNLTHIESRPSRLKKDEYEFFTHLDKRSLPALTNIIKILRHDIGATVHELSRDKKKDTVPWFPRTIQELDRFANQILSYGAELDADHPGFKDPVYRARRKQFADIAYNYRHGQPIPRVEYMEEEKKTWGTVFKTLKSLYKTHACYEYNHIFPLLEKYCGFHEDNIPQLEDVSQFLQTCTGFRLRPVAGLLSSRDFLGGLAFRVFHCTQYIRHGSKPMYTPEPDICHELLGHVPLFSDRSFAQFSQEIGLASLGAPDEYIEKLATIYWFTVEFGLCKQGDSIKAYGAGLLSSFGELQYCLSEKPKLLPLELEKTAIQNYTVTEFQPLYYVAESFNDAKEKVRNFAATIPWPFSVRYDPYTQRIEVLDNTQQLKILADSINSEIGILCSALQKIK
Test: Cell Based Phenylalanine Flux Assay
Details: A375 cells expressing human R408W PAH, 13C-Tyrosine by LC-MS, average where tested multiple times, read-out: AC50

Row | Structure (SMILES) | AC50 (24 hrs with compound) [nM] | AC50 (24 hrs compound incubation) [nM]
1 | COc1ccc2c(C(=O)N3CCc4[nH]cnc4[C@H]3c3nc4ccccc4[nH]3)cnn2c1 [(S)-(4-(1H-benzo[d]imidazol-2-yl)-6,7-dihydro-1H-imidazo[4,5-c]pyridin-5(4H)-yl)(6-methoxypyrazolo[1,5-a]pyridin-3-yl)methanone] | 1000 to 5000 | 
2 | Cc1ccc2c(C(=O)N3CCc4[nH]cnc4[C@H]3c3nc4ccccc4[nH]3)cnn2c1 [(S)-(4-(1H-benzo[d]imidazol-2-yl)-6,7-dihydro-1H-imidazo[4,5-c]pyridin-5(4H)-yl)(6-methylpyrazolo[1,5-a]pyridin-3-yl)methanone] | 1000 to 5000 | 
3 | O=C(C1CCC1)N1CCc2[nH]cnc2[C@H]1c1nc2ccccc2[nH]1 [(S)-(4-(1H-benzo[d]imidazol-2-yl)-6,7-dihydro-1H-imidazo[4,5-c]pyridin-5(4H)-yl)(cyclobutyl)methanone] | 1000 to 5000 | 
4 | O=C(c1ccno1)N1CCc2[nH]cnc2[C@H]1c1nc2ccccc2[nH]1 [(S)-(4-(1H-benzo[d]imidazol-2-yl)-6,7-dihydro-1H-imidazo[4,5-c]pyridin-5(4H)-yl)(isoxazol-5-yl)methanone] | 1000 to 5000 | 
5 | O=C(c1cocn1)N1CCc2[nH]cnc2[C@H]1c1nc2ccccc2[nH]1 [(S)-(4-(1H-benzo[d]imidazol-2-yl)-6,7-dihydro-1H-imidazo[4,5-c]pyridin-5(4H)-yl)(oxazol-4-yl)methanone] | 1000 to 5000 | 
6 | O=C(c1cc2ccccn2n1)N1CCc2[nH]cnc2[C@H]1c1nc2ccccc2[nH]1 [(S)-(4-(1H-benzo[d]imidazol-2-yl)-6,7-dihydro-1H-imidazo[4,5-c]pyridin-5(4H)-yl)(pyrazolo[1,5-a]pyridin-2-yl)methanone] | > 5000 | 
7 | O=C(CCc1nccs1)N1CCc2[nH]cnc2[C@H]1c1nc2ccccc2[nH]1 [Example 900, (S)-1-(4-(1H-benzo[d]imidazol-2-yl)-6,7-dihydro-1H-imidazo[4,5-c]pyridin-5(4H)-yl)-3-(thiazol-2-yl)propan-1-one] |  | 500 to 1000
8 | O=C(CCc1nccs1)N1CCc2[nH]cnc2[C@@H]1c1nc2ccccc2[nH]1 [Example 901, (R)-1-(4-(1H-benzo[d]imidazol-2-yl)-6,7-dihydro-1H-imidazo[4,5-c]pyridin-5(4H)-yl)-3-(thiazol-2-yl)propan-1-one] |  | > 5000
9 | O=C(c1nccs1)N1CCc2[nH]cnc2[C@@H]1c1nc2ccccc2[nH]1 [Example 902, (R)-(4-(1H-benzo[d]imidazol-2-yl)-6,7-dihydro-1H-imidazo[4,5-c]pyridin-5(4H)-yl)(thiazol-2-yl)methanone] |  | > 5000
10 | O=C(c1nccs1)N1CCc2[nH]cnc2[C@H]1c1nc2ccccc2[nH]1 [Example 903, (S)-(4-(1H-benzo[d]imidazol-2-yl)-6,7-dihydro-1H-imidazo[4,5-c]pyridin-5(4H)-yl)(thiazol-2-yl)methanone] |  | 500 to 1000
11 | O=C(Cc1nc2ccccc2s1)N1CCc2[nH]cnc2[C@H]1c1nc2ccccc2[nH]1 [Example 905] |  | 1000 to 5000
12 | CC(C)(C)CCC(=O)N1CCc2[nH]cnc2[C@@H]1c1nc2ccccc2[nH]1 [Example 906, (R)-1-(4-(1H-benzo[d]imidazol-2-yl)-6,7-dihydro-1H-imidazo[4,5-c]pyridin-5(4H)-yl)-4,4-dimethylpentan-1-one] |  | 1000 to 5000
13 | CC(C)(C)CCC(=O)N1CCc2[nH]cnc2[C@H]1c1nc2ccccc2[nH]1 [Example 907, (S)-1-(4-(1H-benzo[d]imidazol-2-yl)-6,7-dihydro-1H-imidazo[4,5-c]pyridin-5(4H)-yl)-4,4-dimethylpentan-1-one] |  | < 500
14 | O=C(CCc1nccs1)N1CCc2[nH]cnc2[C@H]1c1nc2ccc(Br)cc2[nH]1 [Example 908, (S)-1-(4-(6-bromo-1H-benzo[d]imidazol-2-yl)-6,7-dihydro-1H-imidazo[4,5-c]pyridin-5(4H)-yl)-3-(thiazol-2-yl)propan-1-one] |  | < 500

Next, values leading:

Row | AC50 (24 hrs with compound) [nM] | AC50 (24 hrs compound incubation) [nM] | Structure (SMILES)
15 |  | > 5000 | O=C(CCc1nccs1)N1CCc2[nH]cnc2[C@@H]1c1nc2ccc(Br)cc2[nH]1 [Example 909, (R)-1-(4-(6-bromo-1H-benzo[d]imidazol-2-yl)-6,7-dihydro-1H-imidazo[4,5-c]pyridin-5(4H)-yl)-3-(thiazol-2-yl)propan-1-one]
16 |  | 500 to 1000 | O=C(CCc1nccs1)N1CCc2[nH]cnc2[C@H]1c1nc2ccc(Cl)cc2[nH]1 [Example 910, (S)-1-(4-(6-chloro-1H-benzo[d]imidazol-2-yl)-6,7-dihydro-1H-imidazo[4,5-c]pyridin-5(4H)-yl)-3-(thiazol-2-yl)propan-1-one]
17 |  | > 5000 | O=C(CCC1CCCC1)N1CCc2[nH]cnc2[C@@H]1c1nc2ccccc2[nH]1 [Example 912, (R)-1-(4-(1H-benzo[d]imidazol-2-yl)-6,7-dihydro-1H-imidazo[4,5-c]pyridin-5(4H)-yl)-3-cyclopentylpropan-1-one]
18 |  | 500 to 1000 | O=C(CCC1CCCC1)N1CCc2[nH]cnc2[C@H]1c1nc2ccccc2[nH]1 [Example 913, (S)-1-(4-(1H-benzo[d]imidazol-2-yl)-6,7-dihydro-1H-imidazo[4,5-c]pyridin-5(4H)-yl)-3-cyclopentylpropan-1-one]
19 |  | 500 to 1000 | O=C(c1cncs1)N1CCc2[nH]cnc2[C@H]1c1nc2ccccc2[nH]1 [Example 914, (S)-(4-(1H-benzo[d]imidazol-2-yl)-6,7-dihydro-1H-imidazo[4,5-c]pyridin-5(4H)-yl)(thiazol-5-yl)methanone]
20 |  | > 5000 | O=C(c1cncs1)N1CCc2[nH]cnc2[C@@H]1c1nc2ccccc2[nH]1 [Example 915, (R)-(4-(1H-benzo[d]imidazol-2-yl)-6,7-dihydro-1H-imidazo[4,5-c]pyridin-5(4H)-yl)(thiazol-5-yl)methanone]
21 |  | 500 to 1000 | O=C(c1nc(Cl)cs1)N1CCc2[nH]cnc2[C@H]1c1nc2ccccc2[nH]1 [Example 917, (S)-(4-(1H-benzo[d]imidazol-2-yl)-6,7-dihydro-1H-imidazo[4,5-c]pyridin-5(4H)-yl)(4-chlorothiazol-2-yl)methanone]
22 |  | > 5000 | COc1cccc(CCCC(=O)N2CCc3[nH]cnc3[C@@H]2c2nc3ccccc3[nH]2)c1 [Example 918, (R)-1-(4-(1H-benzo[d]imidazol-2-yl)-6,7-dihydro-1H-imidazo[4,5-c]pyridin-5(4H)-yl)-4-(3-methoxyphenyl)butan-1-one]
23 |  | 1000 to 5000 | COc1cccc(CCCC(=O)N2CCc3[nH]cnc3[C@H]2c2nc3ccccc3[nH]2)c1 [Example 919, (S)-1-(4-(1H-benzo[d]imidazol-2-yl)-6,7-dihydro-1H-imidazo[4,5-c]pyridin-5(4H)-yl)-4-(3-methoxyphenyl)butan-1-one]
24 |  | > 5000 | O=C(c1ncc(Cl)s1)N1CCc2[nH]cnc2[C@@H]1c1nc2ccccc2[nH]1 [Example 920, (R)-(4-(1H-benzo[d]imidazol-2-yl)-6,7-dihydro-1H-imidazo[4,5-c]pyridin-5(4H)-yl)(5-chlorothiazol-2-yl)methanone]
25 |  | 500 to 1000 | O=C(c1ncc(Cl)s1)N1CCc2[nH]cnc2[C@H]1c1nc2ccccc2[nH]1 [Example 921, (S)-(4-(1H-benzo[d]imidazol-2-yl)-6,7-dihydro-1H-imidazo[4,5-c]pyridin-5(4H)-yl)(5-chlorothiazol-2-yl)methanone]
26 |  | > 5000 | O=C(c1cnn2ccccc12)N1CCc2[nH]cnc2[C@@H]1c1nc2ccccc2[nH]1 [Example 922, (R)-(4-(1H-benzo[d]imidazol-2-yl)-6,7-dihydro-1H-imidazo[4,5-c]pyridin-5(4H)-yl)(pyrazolo[1,5-a]pyridin-3-yl)methanone]
27 |  | 500 to 1000 | O=C(c1cnn2ccccc12)N1CCc2[nH]cnc2[C@H]1c1nc2ccccc2[nH]1 [Example 923, (S)-(4-(1H-benzo[d]imidazol-2-yl)-6,7-dihydro-1H-imidazo[4,5-c]pyridin-5(4H)-yl)(pyrazolo[1,5-a]pyridin-3-yl)methanone]
28 |  | 500 to 1000 | O=C(c1cnn2cc(F)ccc12)N1CCc2[nH]cnc2[C@H]1c1nc2ccccc2[nH]1 [Example 924, (S)-(4-(1H-benzo[d]imidazol-2-yl)-6,7-dihydro-1H-imidazo[4,5-c]pyridin-5(4H)-yl)(6-fluoropyrazolo[1,5-a]pyridin-3-yl)methanone]
29 |  | 1000 to 5000 | O=C(c1cnn2ccc(Br)cc12)N1CCc2[nH]cnc2[C@H]1c1nc2ccccc2[nH]1 [Example 925, (S)-(4-(1H-benzo[d]imidazol-2-yl)-6,7-dihydro-3H-imidazo[4,5-c]pyridin-5(4H)-yl)(5-bromopyrazolo[1,5-a]pyridin-3-yl)methanone]
30 |  | 500 to 1000 | O=C(c1ccccc1)N1CCc2[nH]cnc2[C@H]1c1nc2ccccc2[nH]1 [Example 928, (S)-(4-(1H-benzo[d]imidazol-2-yl)-1,4,6,7-tetrahydro-5H-imidazo[4,5-c]pyridin-5-yl)(phenyl)methanone]
31 |  | < 500 | O=C(CC1CCCC1)N1CCc2[nH]cnc2[C@H]1c1nc2ccccc2[nH]1 [Example 929, (S)-1-(4-(1H-benzo[d]imidazol-2-yl)-6,7-dihydro-1H-imidazo[4,5-c]pyridin-5(4H)-yl)-2-cyclopentylethanone]
32 |  | < 500 | CC(C)(C)CC(=O)N1CCc2[nH]cnc2[C@H]1c1nc2ccccc2[nH]1 [Example 930, (S)-1-(4-(1H-benzo[d]imidazol-2-yl)-6,7-dihydro-1H-imidazo[4,5-c]pyridin-5(4H)-yl)-3,3-dimethylbutan-1-one]
